Active and inactive are the calls of the source. The rule behind the calls is not given here.
Legend:
[1] = target: Tyrosine-protein kinase JAK2 (Homo sapiens, UniProt O60674); experiment: Inhibition of IL4-induced JAK2 autophosphorylation in human HT-29 cells by SDS-polyacrylamide gel electrophoresis and Western blot method; format: cell-based
[2] = tested on: HT-29; experiment: Effect on total JAK2 protein level in IL4-induced human HT-29 cells at 1 uM to 100 uM by SDS-polyacrylamide gel electrophoresis and Western blot method; format: functional, cell-based

Tyrosine-protein kinase JAK2, sequence (O60674 whole entry): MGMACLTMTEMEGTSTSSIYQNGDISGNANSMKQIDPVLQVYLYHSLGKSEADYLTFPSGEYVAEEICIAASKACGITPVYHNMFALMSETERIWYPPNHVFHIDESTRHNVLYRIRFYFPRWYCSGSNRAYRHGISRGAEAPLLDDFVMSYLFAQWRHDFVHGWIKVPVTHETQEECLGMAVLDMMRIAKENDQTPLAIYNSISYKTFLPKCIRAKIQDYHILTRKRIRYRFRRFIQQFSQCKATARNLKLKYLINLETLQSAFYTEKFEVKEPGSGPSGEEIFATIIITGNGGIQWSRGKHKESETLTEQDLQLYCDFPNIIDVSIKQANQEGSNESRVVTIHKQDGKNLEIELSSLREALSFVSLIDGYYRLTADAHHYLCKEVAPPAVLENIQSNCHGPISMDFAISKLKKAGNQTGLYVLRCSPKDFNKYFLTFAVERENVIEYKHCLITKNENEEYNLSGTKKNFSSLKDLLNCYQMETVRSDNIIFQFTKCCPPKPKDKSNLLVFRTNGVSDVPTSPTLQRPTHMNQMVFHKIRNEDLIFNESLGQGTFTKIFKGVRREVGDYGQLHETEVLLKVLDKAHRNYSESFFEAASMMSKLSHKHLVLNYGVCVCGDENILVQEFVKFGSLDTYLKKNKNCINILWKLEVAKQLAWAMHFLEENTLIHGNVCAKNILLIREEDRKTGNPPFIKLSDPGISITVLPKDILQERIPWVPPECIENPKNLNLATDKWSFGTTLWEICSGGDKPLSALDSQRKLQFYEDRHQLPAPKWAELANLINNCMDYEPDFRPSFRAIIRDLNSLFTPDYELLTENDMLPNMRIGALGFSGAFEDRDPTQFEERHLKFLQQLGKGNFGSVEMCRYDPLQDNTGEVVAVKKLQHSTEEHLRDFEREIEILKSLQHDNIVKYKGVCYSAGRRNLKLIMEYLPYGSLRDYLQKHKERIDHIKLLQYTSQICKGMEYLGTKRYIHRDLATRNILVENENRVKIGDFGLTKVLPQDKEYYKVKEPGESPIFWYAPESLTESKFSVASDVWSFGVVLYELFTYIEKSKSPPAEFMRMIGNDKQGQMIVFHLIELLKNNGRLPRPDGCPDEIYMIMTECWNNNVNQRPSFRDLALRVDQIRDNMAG

COc1cccc(NC(=O)c2cnc(Nc3cccc(OC)c3)c([N+](=O)[O-])c2)c1
IC50 [1]: 8.5 µM | Activity [2]: inactive

COc1cccc(NC(=O)c2cnc(N3CCN(c4ccccc4OC)CC3)c([N+](=O)[O-])c2)c1
IC50 [1]: 9.5 µM | Activity [2]: inactive

CCCCN(C)c1ncc(NS(=O)(=O)c2ccccc2C)cc1C(=O)O
Activity [2]: inactive

Cc1ccccc1S(=O)(=O)Nc1cnc(N2CCCCC2)c(C(=O)O)c1
IC50 [1]: 6.9 µM | Activity [2]: inactive
